Legend:
Homo sapiens [1] = species: Homo sapiens; experiment: Selectivity for human cathepsin K over human cathepsin S
Cathepsin K [2] = biological target: Cathepsin K (Homo sapiens, UniProt P43235); experiment: Inhibition of humaized rabbit cathepsin K
Homo sapiens [3] = species: Homo sapiens; experiment: Selectivity for human cathepsin K over human cathepsin B
Cathepsin K [4] = biological target: T1, Cathepsin K (Oryctolagus cuniculus, UniProt P43236); experiment: Inhibition of rabbit cathepsin K
T1 sequence (P43236 whole entry): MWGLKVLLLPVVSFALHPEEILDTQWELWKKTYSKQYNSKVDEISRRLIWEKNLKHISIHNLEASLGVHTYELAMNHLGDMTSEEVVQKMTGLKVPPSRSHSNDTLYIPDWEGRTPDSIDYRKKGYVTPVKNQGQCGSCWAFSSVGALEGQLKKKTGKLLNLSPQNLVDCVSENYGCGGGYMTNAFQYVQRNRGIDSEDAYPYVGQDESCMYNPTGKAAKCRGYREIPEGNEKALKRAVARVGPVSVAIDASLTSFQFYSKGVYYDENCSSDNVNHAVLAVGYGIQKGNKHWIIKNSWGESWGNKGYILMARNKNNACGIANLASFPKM

Oryctolagus cuniculus [5] = species: Oryctolagus cuniculus; experiment: Inhibition of bone resorption in New Zealand white rabbit by crosslaps ELISA assay; format: functional, organism-based
Homo sapiens [6] = species: Homo sapiens; experiment: Selectivity for human cathepsin K over human cathepsin L
Oryctolagus cuniculus [7] = species: Oryctolagus cuniculus; experiment: Selectivity for IC50 of new Zealand white […] bone resorption over IC50 rabbit cathepsin K; format: functional
[8] = Oral bioavailability in rat at 10 mg/kg; format: ADME, organism-based; settings: in vivo
[9] = AUC in rat at 10 mg/kg, po or 5 mg/kg, iv; format: ADME, organism-based; settings: plasma
[10] = Half life in rat at 10 mg/kg, po or 5 mg/kg, iv; format: ADME, organism-based; settings: in vivo
[11] = Oral bioavailability in rat at 5 mg/kg; format: ADME, organism-based; settings: in vivo
[12] = Half life in rat at 5 mg/kg, po or 1 mg/kg, iv; format: ADME, organism-based; settings: in vivo
[13] = AUC in rat at 5 mg/kg, po or 1 mg/kg, iv; format: ADME, organism-based; settings: plasma

| Structure (SMILES) | Selectivity ratio (Homo sapiens [1]) | IC50 (Cathepsin K [2]) [nM] | Selectivity ratio (Homo sapiens [3]) | IC50 (Cathepsin K [4]) [nM] | IC50 (Oryctolagus cuniculus [5]; Oryctolagus cuniculus) [nM] | Selectivity ratio (Homo sapiens [6]) | Ratio IC50 (Oryctolagus cuniculus [7]) | bioavailability [8] [%] | AUC [9] [µM·h] | half-life [10] [h] | bioavailability [11] [%] | half-life [12] [h] | AUC [13] [µM·h] | IC50 (Oryctolagus cuniculus [5]) [nM] |
| --- | --- | --- | --- | --- | --- | --- | --- | --- | --- | --- | --- | --- | --- | --- |
| N#CCNC(=O)C1CC(F)(F)CCC1c1cnccc1-c1ccc(SCF)cc1 (racemic) | 450 | 2 | > 5000 | 2 | 58 | 260 | 29 |  |  |  |  |  |  |  |
| CSc1ccc(-c2c(C3CCC(F)(F)CC3C(=O)NCC#N)cc[nH]c2=O)cc1 (racemic) | 310 | 8 | > 1250 | 6 | 84 | 430 | 14 |  |  |  |  |  |  |  |
| CSc1ccc(-c2cn(C)nc2C2CCC(F)(F)CC2C(=O)NCC#N)cc1 (racemic) | 490 | 0.4 | 9500 | 0.4 | 41 | 730 | 103 | 100 | 28.9 | 4.6 |  |  |  |  |
| CSc1ccc(-c2ncccc2C2CCC(F)(F)CC2C(=O)NCC#N)cc1 (racemic) | 850 | 1 | > 10000 | 1 | 10 | 540 | 10 |  |  |  |  |  |  |  |
| CSc1ccc(-c2nc(C)sc2C2CCC(F)(F)CC2C(=O)NCC#N)cc1 (racemic) | 380 | 0.2 | 15000 | 0.1 | 17 | 270 | 170 |  |  |  |  |  |  |  |
| CSc1ccc(-c2c(C3CCC(F)(F)CC3C(=O)NCC#N)nnn2Cc2ccccc2)cc1 (racemic) | 180 | 2 | 1400 | 9 | 33 | 350 | 4 |  |  |  |  |  |  |  |
| CSc1ccc(-c2cnccc2C2CCC(F)(F)CC2C(=O)NCC#N)cc1 (racemic) | 720 | 1 | > 10000 | 1 | 18 | 520 | 18 |  |  |  | 65 | 1 | 8.6 |  |
| CSc1ccc(-c2ccccc2C2CCC(F)(F)CC2C(=O)NCC#N)cc1 (racemic; form 2) [listing 1 of 2 here] |  | 0.5 |  |  |  |  |  |  |  |  |  |  |  | 38 |
| CSc1ccc(-c2c[nH]c(=O)cc2C2CCC(F)(F)CC2C(=O)NCC#N)cc1 (racemic) | 540 | 4 | 1200 | 5 | 20 | 410 | 4 |  |  |  |  |  |  |  |
| CSc1ccc(-c2ccccc2C2CCC(F)(F)CC2C(=O)NCC#N)cc1 (racemic; form 2) [listing 2 of 2 here] | 1100 |  | > 120000 |  |  | 880 | 76 |  |  |  |  |  |  |  |
| CSc1ccc(-c2ccccc2C2CCC(F)(F)CC2C(=O)NCC#N)cc1 (racemic; form 1) [listing 1 of 2 here] |  | 0.3 |  | 0.3 |  |  |  | 39 | 18.5 |  |  |  |  | 16 |
| CSc1ccc(-c2c[n+]([O-])ccc2C2CCC(F)(F)CC2C(=O)NCC#N)cc1 (racemic) | 480 | 5 | > 2000 | 5 | 75 | 460 | 15 |  |  |  |  |  |  |  |
| CSc1ccc(-c2ccccc2C2CCC(F)(F)CC2C(=O)NCC#N)cc1 (racemic; form 1) [listing 2 of 2 here] | 940 |  | > 36000 |  |  | 780 | 53 |  |  |  |  |  |  |  |
